Data as given in patent publication US10695341B2, “Compositions and methods for treating endometriosis” (UNIVERSITY OF SOUTH FLORIDA, priority 2014, dated 2020).

Tests used:
LC3B-II [1] = test: Western blot for LC3B, T-HESC cells, HCQ; assay type: cell-based, human; details: 25 μM HCQ, 18 hours
endometriotic lesions = test: Induced murine endometriosis model, lesion count (Example 6); assay type: in vivo, C57BL/6 mice
Procedure: To determine whether treatment with HCQ alters the formation of endometriotic lesions, an induced model of murine endometriosis in which mice receive injections of uterine horn fragments that develop into lesions within 2 weeks was utilized. Receipient (endometriosis-induced) mice were treated with 60 mg/kg HCQ21 or phosphate-buffered saline (PBS, FIG. 12). This treatment was repeated once every seven days post-induction. Mice that were neither injected with uterine horn fragments nor treated were used as controls (FIG. 39). All of the mice were euthanized at the same time (14 days after endometriosis induction for both the PBS and HCQ treatment groups). Ectopic lesions that developed in the recipient mice (white arrow, FIGS. 40A-40B) were counted, measured, and collected for RNA and protein analysis, as well as for histological staining. […] The majority (87.5%) of endometriosis-induced mice developed lesions. At the time of collection, we noted that the endometriotic lesions varied in size, color, and location across the treatment groups.
Five-week-old C57BL/6 female mice were purchased from Jackson laboratories. All animals were maintained under standard 12 h photoperiod; food and water were available ad libitum throughout the study. […] Lesions were measured using a caliper. Volume of the lesions was calculated according to the formula: 4/3πr^2R.

LC3B-II [2] = test: Western blot of LC3B in other organs of treated mice; assay type: in vivo, mouse; details: 5 HCQ-treated vs 5 PBS-treated mice
Procedure: Tissues used for protein analyses included uterine horns, ectopic lesions, ovaries, thymus, kidneys, heart, pancreas, spleen, and liver. Samples were flash frozen in liquid nitrogen and stored at -80° C. until use. Tissues were homogenized in ice-cold lysis buffer containing 1% Triton X-100, 50 mM HEPES, 150 mM NaCl, 1 mM MgCl2, 1 mM EGTA, 10% glycerol, and protease inhibitor cocktail (Roche, Indianapolis, Ind.) using a PowerGen 125 homogenizer (Fisher Scientific, Pittsburgh, Pa.). Samples were centrifuged at 14,000 rpm for 10 min at 4° C. The supernatants were collected and total protein concentration was determined using the BCA assay (ThermoScientific, Rockford, Ill.), and a Bio Tek synergy 2 microplate reader (Winooski, Vt.). Samples were normalized and then run onto 10 or 12% SDS-polyacrylamide gels prepared in a Criterion® Cassette system (Bio-Rad, Hercules, Calif.) as previously described. The following antibodies and dilutions were used: LC3B rabbit polyclonal (#2775, 1:1,000), LC3A rabbit monoclonal (#4599 ([…]), 1:1,000), Beclin-1 rabbit polyclonal (#3738, 1:1,000), GABARAPL1 rabbit monoclonal (#13733 (E1J4E), 1:1,000), AMPKα rabbit monoclonal (#2603 (23A3), 1:500), FOXO1 rabbit monoclonal (#2880 (C29H4), 1:1,000), and Pan-Actin rabbit polyclonal (#4968, 1:500) were all obtained from Cell Signaling Technology (Danvers, Mass.). […]

Question: `CCN(CCO)CCCC(C)Nc1ccnc2cc(Cl)ccc12` (centres unmarked) [HCQ, hydroxychloroquine] was tested. Which “LC3B-II protein in T-HESC cells” value (LC3B-II [1]) did it give?
Answer: increase

Question: What about the “number of lesions that developed vs PBS” value (endometriotic lesions; 60 mg/kg HCQ i.p., repeated after seven days, 14 days after induction, p=0.0007) of the same compound?
Answer: significant reduction

Question: What about the “total number of lesions in treatment group” value (endometriotic lesions; 60 mg/kg HCQ, n=25 mice (PBS: 46 lesions in n=24)) of the same compound?
Answer: 18

Question: What about the “LC3B-II expression in heart” value (LC3B-II [2]) of the same compound?
Answer: showed differences

Question: What about the “LC3B-II expression in lung” value (LC3B-II [2]) of the same compound?
Answer: showed differences
